Source: US20030131363A1, “Heme-regulated eukaryotic initiation factor 2 alpha kinase knockout mice and methods for use” (Massachusetts Institute of Technology, priority 2001, published 2003)

Legend:
[1] = tested on: HRI +/+ reticulocytes; experiment: [35S]-methionine incorporation / protein (globin) synthesis in isolated intact reticulocytes, HRI +/+; type: cell-based, mouse
Protocol: (§1) Mice were injected with phenylhydrazine at 40 mg/kg on days 0, 1 and 3 to induce hemolysis, and the subsequent erythropoiesis and release of reticulocytes into the blood stream. Blood samples were collected by heart puncture on day 7 when the reticulocyte counts were 85-95%. Reticulocytes were washed twice with ice-cold phosphate-buffered saline supplemented with 5 mM glucose. For protein synthesis assays, reticulocytes were resuspended in DMEM (2×10^8 cells/ml) with 1/10 concentration of methionine plus 2% dialyzed fetal bovine serum and preincubated for 30 min at 37_C for recovery. […] Incorporation of the [^35S]-methionine in the globin chains and other proteins was analyzed by 15% SDS-PAGE, and subsequent transfer to nitrocellulose membranes. Protein synthesis in reticulocytes was quantitated by scintillation counting of the nitrocellulose strips containing globin chains. Phosphorylation of HRI and eIF2a in isolated reticulocytes were analyzed by western blot analysis following 7.5% and 12% SDS-PAGE respectively. […]
(§2) HRI−/− mice are viable and fertile without gross morphological abnormalities. […] The IF2Alpha kinase activity of HRI in reticulocyte lysates was determined using in vitro protein kinase assays. The extent of the eIF2a phosphorylation was determined by western-blot analysis using antibody specific to the phosphorylated eIF2a. […]

[2] = tested on: HRI−/− reticulocytes; experiment: [35S]-methionine incorporation / protein (globin) synthesis in isolated intact reticulocytes, HRI−/−; type: cell-based, mouse
Protocol: as §1, §2

[3] = tested on: Wt mice; experiment: Survival in phenylhydrazine-induced hemolysis, Wt mice; settings: Wt mice with iron-deficiency, after two injections, 50 mg/Kg
Protocol: (§3) States of iron deficiency have been and remain very common in humans. Thus, exposure to situations that render RBCs more fragile may be often concurrent with iron-deficiency, such as in thalassemias, sickle cell disease, malaria and other infections, extreme climatic conditions, ingestion of natural toxins, heavy metals or drugs. […] Both Wt and HRI−/− mice were injected with phenylhydrazine at the dosages as indicated at Days 0, 1 and 3. The mice were observed daily. […] Six mice of each genotype were used for each dosage. […] The standard phenylhydrazine regime employs three injections of phenylhydrazine on days 0, 1 and 3.

[4] = tested on: HRI−/− mice; experiment: Survival in phenylhydrazine-induced hemolysis, HRI−/− mice; settings: iron-deficient HRI−/− mice, after two injections, 50 mg/Kg
Protocol: as §3

[5] = biological target: purified rabbit reticulocyte eIF-2 (alpha subunit as substrate), P83268
[6] = biological target: purified wheat germ eIF-2Alpha
[7] = biological target: T1, endogenous eIF2 of mouse reticulocyte lysates (alpha subunit as substrate), Q6ZWX6
T1 chain: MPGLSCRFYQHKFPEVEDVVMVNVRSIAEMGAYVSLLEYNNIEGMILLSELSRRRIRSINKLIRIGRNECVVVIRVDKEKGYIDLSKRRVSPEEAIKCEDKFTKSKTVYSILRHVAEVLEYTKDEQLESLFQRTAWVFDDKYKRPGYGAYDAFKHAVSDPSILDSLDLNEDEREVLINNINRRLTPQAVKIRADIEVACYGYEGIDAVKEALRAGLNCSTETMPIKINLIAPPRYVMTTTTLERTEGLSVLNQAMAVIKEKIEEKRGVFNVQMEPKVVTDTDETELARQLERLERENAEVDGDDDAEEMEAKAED

Chain of purified rabbit reticulocyte eIF-2 (alpha subunit as substrate), P83268 (P83268 whole entry, looked up, tested part not stated): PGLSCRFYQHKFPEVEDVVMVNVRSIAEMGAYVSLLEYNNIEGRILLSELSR

`C[C@@H]1C[C@@H]([C@H](O)CC2CC(=O)NC(=O)C2)C(=O)[C@@H](C)C1` [cycloheximide] was tested, and the “Protein synthesis, inhibition” value ([1]; Wt reticulocytes, cycloheximide (2 ìM per method)) was “inhibited equally well” and the “Protein synthesis, inhibition” value ([2]; cycloheximide (2 ìM per method)) was “inhibited equally well”.

For `NNc1ccccc1` [phenylhydrazine], the Survival [3] was ~100% and the Mice died [4] was 90%.

In the case of hemin, the “Incorporation of [35S]-methionine into globins” value ([1]; +/+ reticulocytes, pre-treatment with 40_M hemin for 30 min prior to [35S]-methionine) is reported as 208 % of control and the “Protein synthesis, effect of addition of hemin” value ([2]; hemin added) is reported as “not affected”.

B1: 90 kDa polypeptide expressed from rabbit HRI cDNA (heme-regulated eIF-2 alpha kinase), in vitro translation product (protein)
chain: MLGGSAGTRGGEAEGDGAGAVGAVAPPPAIDFPAEVSDPKYDESDVPAELQVLKEPLQQPAFPFAVANQLLLVSLLEHLSHVHEPNPLRSRQVFKLLCQTFIKMGLLSSFTCSDEFSSLRLHHNRAITHLMRSARERVRQDPCADNSHIQKIRSREVALEAQTSRYLNEFEELSILGKGGYGRVYKVRNKLDGQYYAIKKILIKGATKTDCMKVLREVKVLAGLQHPNIVGYHTAWIEHVHVHVQADRVPIQLPSLEVLSDQEEDRDQYGVKNDASSSSSIIFAEFSPEKEKSSDECAVESQNNKLVNYTTNLVVRDTGEFESSTERQENGSIVERQLLFGHNSDVEEDFTSAEESSEEDLSALRHTEVQYHLMLHIQMQLCELSLWDWIAERNRRSRECVDESACPYVMVSVATKIFQELVEGVFYIHNMGIVHRDLKPRNIFLHGPDQQVKIGDFGLACADIIQKNAARTSRNGERAPTHTSRVGTCLYASPEQLEGSEYDAKSDMYSVGVILLELFQPFGTEMERAEVLTGVRAGRIPDSLSKRCPAQAKYVQLLTRRNASQRPSALQLLQSELFQNSAHVNLTLQMKIIEQEREIEELKKQLSLLSQARGVRSDRRDGELPA
B1 was tested, and the “eIF-2Alpha kinase activity (32P protein kinase assay, SDS-gel electrophoresis)” value [5] was “translational products of HRI 2A and HRI 2B mRNAs have enhanced eIF-2Alpha kinase activity as compared to the control in the absence of added mRNA”.

B2: purified reticulocyte HRI (protein)
chain: B1 chain
For B2, the “phosphorylation of eIF-2Alpha (protein kinase assay)” value [6] was “the purified reticulocyte HRI phosphorylates purified wheat germ eIF-2Alpha very inefficiently”.

B3: mouse HRI protein (heme-regulated eIF2 alpha kinase) in reticulocyte lysates (protein)
chain: MLGGSSVDGERDTDDDAAGAVAAPPAIDFPAEVSDPKYDESDVPAELQVLKEPLQQPTFPFLVANQLLLVSLLEHLSHVHEPNPLHSKQVFKLLCQTFIKMGLLSSFTCSDEFSSLRLHHNRAITHLMRSAKERVRQDPCQDNSYMQKIRSREIAFEAQTSRYLNEFEELAILGKGGYGRVYKVRNKLDGQHYAIKKILIKSATKTDCMKVLREVKVLAGLQHPNIVGYHTAWIEHVHVVQPQDRVPIQLPSLEVLSEQEGDRDQGGVKDNESSSSIVFAELTPEKEKPFGESEVKNENNNLVSYTANLVVRNSSESESSIELQEDGLTDLSVRPVVRHQLPLGHSSELEGNFTSTDESSEGNLNLLGQTEVRYHLMLHIQMQLCELSLWDWITERNKRSREYVDEAACPYVMASVATKIFQELVEGVFYIHNMGIVHRDLKPRNIFLHGPDQQVKIGDFGLACADIIQNADWTNRNGKGTRTHTSRVGTCLYASPEQLEGSQYDAKSDMYSLGVILLELFQPFGTEMERATVLTGVRTGRIPESLSKRCPVQAKYIQLLTGRNVSQRPSALQLLQSELFQTTGNVNLTLQMKIIEQEKEIEELKKQLSLLSQDRGLKR
B3 was tested, and the “in vitro eIF2 Alpha phosphorylation in reticulocyte lysates with endogenous eIF2 as substrate” value [7] was “In vitro eIF2 Alpha phosphorylation occurred in reticulocyte lysates from +/+ mice ... little eIF2 phosphorylation was detected in the reticulocyte lysates of HRI-/- mice”.
